In patent US20240246960A1 (adMare Therapeutics Society, priority 2021, published 2024):
pEC50, pIC50: −log10 of the molar value. Read-outs that look alike come from different tables or passages of the source.

How the values were obtained:
[1] = biological target: T1, DNA-PK (Homo sapiens, UniProt P78527); experiment: DNA-PK Assay for Biochemical Enzymatic Inhibition (ADP Glo Kinase assay)
T1 construct: purchased Invitrogen PR9107A
Method in brief: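 Human DNA-PK (25 ng) preincubated 15 min with compounds (ten three-fold dilutions) in HEPES pH 7.5, MgCl2, KCl, calf thymus DNA buffer, then substrate 434.4 μM and ATP 64.4 μM (final) for 60 min at room temperature. ADP-Glo luminescence; percent inhibition fitted by four-parameter regression for IC50.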

[2] = biological target: T2, DNA-PK phosphorylation at Serine 2056 (Homo sapiens, UniProt P78527); experiment: Cellular Assay for Inhibition of DNA-PK Phosphorylation at Serine 2056 (FaDu cells, neocarzinostatin, sandwich ELISA); type: cell-based
T2 construct: host or cells: FaDu
Method in brief: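 Readout was pSer2056 and total DNA-PK, measured by sandwich ELISA on protein-normalized lysates. Prior to lysis, compound was applied to FaDu cells for 1 h (0.3% DMSO), followed by 2 h of 1 μg/mL neocarzinostatin. IC50 values were fitted from log concentration versus % inhibition normalized to DMSO and NCS controls.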

[3] = biological target: T3, pDNA-PK ser2056 induction in HCT116 spheroids (Homo sapiens, UniProt P78527); experiment: Multicellular tumour spheroid + radiation, pDNA-PK inhibition, HCT116; type: cell-based; details: 20 Gy, 20% O2
T3 construct: endogenous in cells; host or cells: HCT116 multicellular tumour spheroids
Method in brief: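 EC50 (μM) is concentration halving radiation-induced pDNA-PK ser2056, scored by fluorescent immunostaining of cryosections 2 h after 20 Gy. HCT116 tumour spheroids (~0.5 mm, stirred, 20% O2/5% CO2, 37 °C) exposed to serial dilutions from 10 or 5 μM to 3.5 nM starting 1 h before irradiation.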

[4] = Microsomal stability assay, human liver microsomes; type: in vitro ADME; details: for microsomal CLint at 0.1 uM: both sexes, human, liver microsomes
Method: Samples were then mixed and centrifuged. Supernatants were used for HPLC-MS/MS analysis. […] Peak areas corresponding to the test compound were recorded.

[5] = Microsomal stability assay, mouse liver microsomes; details: for microsomal CLint at 0.1 uM: male, CD-1, mouse, liver microsomes, pH 7.4, Microsomal Stability Mouse Clint
[6] = Hepatocyte stability assay, mouse hepatocytes; type: in vitro ADME; details: for hepatocyte CLint at 1 uM: male, CD-1, mouse, cryopreserved hepatocytes
Method: (§1) Cryopreserved mouse hepatocytes were obtained from a pool of 10 or more male CD-1 mice. Cryopreserved human hepatocytes were obtained from a pool of 10 or more donors of mixed gender. Final hepatocyte density was 0.7 million viable cells per mL and test compound concentration was 1 uM with a maximum of 0.01% DMSO. Cryopreserved hepatocytes were thawed, washed, and resuspended in Krebs-Heinslet buffer (pH 7.3). The reaction was initiated by adding the test compound into cell suspension and incubated for 0, […], 1, 1.5, and 2 h, respectively, at 37° C./5% CO2. The reaction was stopped by adding acetonitrile into the incubation mixture. Samples were then mixed, transferred completely to another 96-well plate, and centrifuged. Supernatants were used for HPLC-MS/MS analysis. […] Peak areas corresponding to the test compound were recorded.

[7] = Hepatocyte stability assay, human hepatocytes; type: in vitro ADME; details: both sexes, human, cryopreserved hepatocytes, pH 7.3; Example 11
Method: as §1

[8] = Example 7, spheroid, cell line HCT115 [sic], read-out: EC50 (pDNA-PK inhibition, immunohistochemical endpoint)
[9] = Example 9 Study 2, read-out: Spheroid Cell line: HCT116 Immunohistochemical endpoint pDNA-PK inhibition EC50
[10] = pH 7.4, 0.1 mg/mL microsomes, 0.1 uM compound
[11] = 0.1 mg/mL microsomes, 0.1 uM compound

SMILES	pIC50 ([1]; Table 1)	pIC50 ([2]; Table 1)	pEC50 [3, 8]	pEC50 [3, 9]	Microsomal Stability (human) % rem. 60 min [4]	microsomal CLint at 0.1 uM [4, 10]	Microsomal Stability (mouse) % rem. 60 min [5]	microsomal CLint at 0.1 uM [5, 11]	Hepatocyte Stability (mouse) % rem. 120 min ([6]; 120 min)	hepatocyte CLint at 1 uM ([6]; pH 7.3, 0.7 million cells per mL, 1 uM compound)	pIC50 ([1]; Table 2)	pIC50 ([2]; Table 2)	Microsomal Stability (human) % rem. 60 min ([4]; Example 11)	microsomal CLint at 0.1 uM ([4]; pH 7.4, Example 11)	hepatocyte CLint at 1 uM ([6]; pH 7.3, Example 11)	Microsomal Stability (mouse) % rem. 60 min ([5]; Example 11)	microsomal CLint at 0.1 uM ([5]; Example 11)	hepatocyte CLint at 1 uM [7]
O=C(N[C@H]1CC[C@@H](Oc2nc(N3CCOCC3)cc3ncccc23)CC1)c1cccnn1 [Compound 120, N-((1s,4s)-4-((7-morpholino-1,6-naphthyridin-5-yl)oxy)cyclohexyl)pyridazine-3-carboxamide]	9.00 to 9.30	6.00 to 7.00	5.00 to 6.00	5.00 to 6.00	F (% remaining = 25-50%)	> 116 µL/min/mg	H (% remaining = 75-100%)	< 116 µL/min/mg	–	–	–	–	–	–	–	–	–	–
COc1ccnc(C(=O)N[C@H]2CC[C@@H](Oc3nc(N4CCOCC4)cc4ncccc34)CC2)n1 [Compound 131, 4-methoxy-N-((1s,4s)-4-((7-morpholino-1,6-naphthyridin-5-yl)oxy)cyclohexyl)pyrimidine-2-carboxamide]	9.00 to 9.30	> 7.00	5.00 to 6.00	5.00 to 6.00	E (% remaining = 0-25%)	> 116 µL/min/mg	E (% remaining = 0-25%)	> 116 µL/min/mg	–	–	–	–	–	–	–	–	–	–
O=C(N[C@H]1CC[C@@H](Oc2nc(N3CCOCC3)cc3ncccc23)CC1)c1cncs1 [Compound 137, N-((1s,4s)-4-((7-morpholino-1,6-naphthyridin-5-yl)oxy)cyclohexyl)thiazole-5-carboxamide]	> 9.30	6.00 to 7.00	6.00 to 6.30	6.00 to 6.30	F (% remaining = 25-50%)	> 116 µL/min/mg	G (% remaining = 50-75%)	< 116 µL/min/mg	–	–	–	–	–	–	–	–	–	–
CS(=O)(=O)Nc1cnc2cc(N3CCOCC3)nc(O[C@H]3CC[C@@H](NC(=O)c4ncccn4)CC3)c2c1 [Compound 177, N-((1s,4s)-4-((3-(methylsulfonamido)-7-morpholino-1,6-naphthyridin-5-yl)oxy)cyclohexyl)pyrimidine-2-carboxamide]	9.00 to 9.30	5.00 to 6.00	5.00 to 6.00	5.00 to 6.00	G (% remaining = 50-75%)	< 116 µL/min/mg	G (% remaining = 50-75%)	< 116 µL/min/mg	–	–	–	–	–	–	–	–	–	–
CN(c1cnc2cc(N3CCOCC3)nc(O[C@H]3CC[C@@H](Nc4ncccn4)CC3)c2c1)S(C)(=O)=O [Compound 197, N-methyl-N-(7-morpholino-5-(((1s,4s)-4-(pyrimidin-2-ylamino)cyclohexyl)oxy)-1,6-naphthyridin-3-yl)methanesulfonamide]	8.00 to 9.00	6.00 to 7.00	–	–	–	–	–	–	G (% remaining = 50-75%)	> 8.2 µL/min/1e6 cells	–	–	–	–	–	–	–	–
COc1cnc(N[C@H]2CC[C@@H](Oc3nc(N4CCOCC4)cc4ncc(N)cc34)CC2)nc1 [Compound 202, 5-(((1s,4s)-4-((5-methoxypyrimidin-2-yl)amino)cyclohexyl)oxy)-7-morpholino-1,6-naphthyridin-3-amine]	> 9.30	> 7.00	5.00 to 6.00	5.00 to 6.00	–	–	E (% remaining = 0-25%)	> 116 µL/min/mg	–	–	–	–	–	–	–	–	–	–
CS(=O)(=O)Nc1cnc2cc(N3CCOCC3)nc(O[C@H]3CC[C@@H](Nc4ncccn4)CC3)c2c1 [LFA006, N-[7-Morpholino-5-[4-(pyrimidin-2-ylamino)cyclohexoxy]-1,6-naphthyridin-3-yl]methanesulfonamide]	–	–	–	–	–	–	–	–	–	–	> 9.30	> 7.00	G (% remaining = 50-75%)	< 116 µL/min/mg	> 8.2 µL/min/1e6 cells	G (% remaining = 50-75%)	< 116 µL/min/mg	–
CS(=O)(=O)Nc1cnc2cc(N3CCOCC3)nc(O[C@H]3CC[C@@H](NC(=O)c4ncccn4)CC3)c2c1 [LFA015, N-[4-[[3-(Methanesulfonamido)-7-morpholino-1,6-naphthyridin-5-yl]oxy]cyclohexyl]pyrimidine-2-carboxamide]	–	–	–	–	–	–	–	–	–	–	> 9.30	5.00 to 6.00	H (% remaining = 75-100%)	< 116 µL/min/mg	–	H (% remaining = 75-100%)	< 116 µL/min/mg	–
CS(=O)(=O)Nc1cnc2cc(N3CCOCC3)nc(O[C@H]3CC[C@@H](n4ccnc4)CC3)c2c1 [LFA017, N-[5-(4-Imidazol-1-ylcyclohexoxy)-7-morpholino-1,6-naphthyridin-3-yl]methanesulfonamide]	–	–	–	–	–	–	–	–	–	–	> 9.30	–	–	–	> 8.2 µL/min/1e6 cells	–	–	< 8.2 µL/min/1e6 cells
CS(=O)(=O)Nc1cnc2cc(N3CCOCC3)nc(O[C@H]3CC[C@@H](Nc4ncc(C(F)(F)F)cn4)CC3)c2c1 [LFA022, N-[7-Morpholino-5-[4-[[5-(trifluoromethyl)pyrimidin-2-yl]amino]cyclohexoxy]-1,6-naphthyridin-3-yl]methanesulfonamide]	–	–	–	–	–	–	–	–	–	–	9.00 to 9.30	> 7.00	H (% remaining = 75-100%)	< 116 µL/min/mg	> 8.2 µL/min/1e6 cells	G (% remaining = 50-75%)	< 116 µL/min/mg	–
CS(=O)(=O)Nc1cnc2cc(N3CCOCC3)nc(O[C@H]3CC[C@@H](Nc4ncc(C#N)cn4)CC3)c2c1 [LFA025, N-[5-[4-[(5-Cyanopyrimidin-2-yl)amino]cyclohexoxy]-7-morpholino-1,6-naphthyridin-3-yl]methanesulfonamide]	–	–	–	–	–	–	–	–	–	–	> 9.30	> 7.00	H (% remaining = 75-100%)	< 116 µL/min/mg	> 8.2 µL/min/1e6 cells	G (% remaining = 50-75%)	< 116 µL/min/mg	< 8.2 µL/min/1e6 cells
O=C(N[C@H]1CC[C@@H](Oc2nc(N3CCOCC3)cc3ncc(O)cc23)CC1)c1ncccn1 [LFA115, N-[4-[(3-Hydroxy-7-morpholino-1,6-naphthyridin-5-yl)oxy]cyclohexyl]pyrimidine-2-carboxamide]	–	–	–	–	–	–	–	–	–	–	9.00 to 9.30	6.00 to 7.00	G (% remaining = 50-75%)	< 116 µL/min/mg	–	G (% remaining = 50-75%)	< 116 µL/min/mg	–
Oc1cnc2cc(N3CCOCC3)nc(O[C@H]3CC[C@@H](Nc4ncccn4)CC3)c2c1 [LFA117, 7-Morpholino-5-[4-(pyrimidin-2-ylamino)cyclohexoxy]-1,6-naphthyridin-3-ol]	–	–	–	–	–	–	–	–	–	–	> 9.30	> 7.00	H (% remaining = 75-100%)	< 116 µL/min/mg	–	F (% remaining = 25-50%)	< 116 µL/min/mg	–
